“And” between values parts separate entries of the source, which are not always exact repeats. Equal values may be shown once.
Tests used:
[1] = tested on: Plasmodium yoelii (P. yoelii); assay: Peters' four-day inhibition method, P. yoelii murine malaria model; format: in vivo, ICR mice; conditions: individual mice
Procedure: In vivo evaluation of antimalarial activity was performed using the classical Peters’ four-day inhibition method. A murine malaria model was constructed by intraperitoneal injection of 5.00 × 10^7 Plasmodium yoelii (P. yoelii)- or Plasmodium berghei (P. berghei)-infected erythrocytes. […] Mice were gavaged once 4 hours after infection with medicated soybean oil or the test drug (gavage standard was 0.20 mL/10 g), and the drug was administered orally for 4 consecutive days. Four hours after the last dose, blood was collected from the tail tip of the mice to make a thin blood smear. The smear was air-dried, fixed in methanol, stained with Giemsa for 30 minutes, then rinsed with distilled water, air-dried at room temperature, and visualized for malaria infection under a microscope (OLYMPUS BX43) at 100x oil immersion. The inhibition ratio (%) for each group was calculated using the following equations:
Inhibitionratio(%)=(infectionratiocontrolgroup−infectionratiotreatmentgroup)/infectionratiocontrolgroup×100

Caco-2 cell monolayers = assay: Bidirectional transport of ART across Caco-2 cell monolayers (LC-MS/MS); format: in vitro ADME, human; conditions: for transhipment of ART, AP-BL / transhipment of ART, Transepithelial transport in BL-to-AP: single replicate; for ART concentration per group, summary block: summary used for cumulative amount
Excerpt: (§1) The human epithelial cell line Caco-2 serves as a widely recognized model for the intestinal epithelial barrier, frequently utilized in the assessment of drug absorption and transport mechanisms. In this study, we evaluated drug absorption and distribution in vitro with the help of the Caco-2 cell model. Caco-2 cells were purchased from the Chinese Academy of Medical Sciences (Beijing, China, Resource No. 3111C0001CCC000100). The cells were resuscitated and inserted into culture flasks. Caco-2 cells were passaged with DMEM high glucose medium containing 10% (V/V) FBS, 1% (V/V) non-essential amino acid solution and 100 U/mL penicillin-streptomycin double antibiotic solution, and cultured at 37°C in a 5% CO2 incubator. […] The integrity of the cell monolayer was checked by measuring the transmembrane electrical resistance (TEER) of the monolayer cells with a Millicell-ERS electrode (Millipore Corp., Billerica, MA, USA). Caco-2 cells were used for transport experiments 17-21 days after inoculation. Besides, only monolayers with TEER values above 400 Ω/cm^2 were used in the study. […] To prepare drug-treated Caco-2 cell monolayers, Caco-2 cells cultured in Transwell® inserts were aseptically treated on day 21 with 10 μM of […] and nACTs. […] The excitation wavelength was set at 485 nm, and the emission wavelength at 535 nm. […] The efflux ratio was calculated using the Papp (BL-AP) to Papp (AP-BL) ratio. […] The solvent gradient was 65%B-95%B for 0-5 min; 95%B for 5-6 min; and 35%B for 6-9 min.

[2] = as above; format: in vitro ADME, human; conditions: human, Caco-2 monolayer, n = 3
Excerpt: as §1

P-glycoprotein (P-gp) = molecular target: T1, P-glycoprotein (P-gp) (Homo sapiens, UniProt P08183); assay: Rhodamine 123 (P-gp substrate) transport across drug-treated Caco-2 cell monolayers; format: cell-based; conditions: co-incubated with R123, 10 μM, Caco-2 monolayer, Fig 6
T1 construct: The transport of R123 in normal Caco-2 cell monolayers or drug-treated Caco-2 cell monolayers was further studied; host or cells: Caco-2
Excerpt: The human epithelial cell line Caco-2 serves as a widely recognized model for the intestinal epithelial barrier, frequently utilized in the assessment of drug absorption and transport mechanisms. In this study, we evaluated drug absorption and distribution in vitro with the help of the Caco-2 cell model. Caco-2 cells were purchased from the Chinese Academy of Medical Sciences (Beijing, China, Resource No. 3111C0001CCC000100). The cells were resuscitated and inserted into culture flasks. Caco-2 cells were passaged with DMEM high glucose medium containing 10% (V/V) FBS, 1% (V/V) non-essential amino acid solution and 100 U/mL penicillin-streptomycin double antibiotic solution, and cultured at 37°C in a 5% CO2 incubator. […] The integrity of the cell monolayer was checked by measuring the transmembrane electrical resistance (TEER) of the monolayer cells with a Millicell-ERS electrode (Millipore Corp., Billerica, MA, USA). Caco-2 cells were used for transport experiments 17–21 days after inoculation. Besides, only monolayers with TEER values above 400 Ω/cm^2 were used in the study.
The transport of R123 in normal Caco-2 cell monolayers or drug-treated Caco-2 cell monolayers was further studied. […] The transport buffer containing 5 μM of R123 was added on either the AP or the BL side of the inserts, as described above. […] The concentrations of R123 were immediately analyzed by SpectraMax iD3. The excitation wavelength was set at 485 nm, and the emission wavelength at 535 nm. Papp values across the cell monolayers were calculated according to the equation: Papp = dQ/dt × 1/(A × C0), where dQ/dt represents the rate of drug transport. […] The efflux ratio was calculated using the Papp (BL-AP) to Papp (AP-BL) ratio.

[3] = sample code A: apical(AP), 30 min
[4] = sample code A: apical(AP), 60 min
[5] = sample code A: apical(AP), 90 min
[6] = sample code A: apical(AP), 120 min
[7] = sample code A: apical(AP), 150 min
[8] = sample code A: apical(AP), 180 min
[9] = sample code B: basolateral (BL), 30 min
[10] = sample code B: basolateral (BL), 60 min
[11] = sample code B: basolateral (BL), 90 min
[12] = sample code B: basolateral (BL), 120 min
[13] = sample code B: basolateral (BL), 150 min
[14] = sample code B: basolateral (BL), 180 min
[15] = Caco-2, ART given as nACTs equivalent to 10 μM ART

T1 sequence (P08183 whole entry): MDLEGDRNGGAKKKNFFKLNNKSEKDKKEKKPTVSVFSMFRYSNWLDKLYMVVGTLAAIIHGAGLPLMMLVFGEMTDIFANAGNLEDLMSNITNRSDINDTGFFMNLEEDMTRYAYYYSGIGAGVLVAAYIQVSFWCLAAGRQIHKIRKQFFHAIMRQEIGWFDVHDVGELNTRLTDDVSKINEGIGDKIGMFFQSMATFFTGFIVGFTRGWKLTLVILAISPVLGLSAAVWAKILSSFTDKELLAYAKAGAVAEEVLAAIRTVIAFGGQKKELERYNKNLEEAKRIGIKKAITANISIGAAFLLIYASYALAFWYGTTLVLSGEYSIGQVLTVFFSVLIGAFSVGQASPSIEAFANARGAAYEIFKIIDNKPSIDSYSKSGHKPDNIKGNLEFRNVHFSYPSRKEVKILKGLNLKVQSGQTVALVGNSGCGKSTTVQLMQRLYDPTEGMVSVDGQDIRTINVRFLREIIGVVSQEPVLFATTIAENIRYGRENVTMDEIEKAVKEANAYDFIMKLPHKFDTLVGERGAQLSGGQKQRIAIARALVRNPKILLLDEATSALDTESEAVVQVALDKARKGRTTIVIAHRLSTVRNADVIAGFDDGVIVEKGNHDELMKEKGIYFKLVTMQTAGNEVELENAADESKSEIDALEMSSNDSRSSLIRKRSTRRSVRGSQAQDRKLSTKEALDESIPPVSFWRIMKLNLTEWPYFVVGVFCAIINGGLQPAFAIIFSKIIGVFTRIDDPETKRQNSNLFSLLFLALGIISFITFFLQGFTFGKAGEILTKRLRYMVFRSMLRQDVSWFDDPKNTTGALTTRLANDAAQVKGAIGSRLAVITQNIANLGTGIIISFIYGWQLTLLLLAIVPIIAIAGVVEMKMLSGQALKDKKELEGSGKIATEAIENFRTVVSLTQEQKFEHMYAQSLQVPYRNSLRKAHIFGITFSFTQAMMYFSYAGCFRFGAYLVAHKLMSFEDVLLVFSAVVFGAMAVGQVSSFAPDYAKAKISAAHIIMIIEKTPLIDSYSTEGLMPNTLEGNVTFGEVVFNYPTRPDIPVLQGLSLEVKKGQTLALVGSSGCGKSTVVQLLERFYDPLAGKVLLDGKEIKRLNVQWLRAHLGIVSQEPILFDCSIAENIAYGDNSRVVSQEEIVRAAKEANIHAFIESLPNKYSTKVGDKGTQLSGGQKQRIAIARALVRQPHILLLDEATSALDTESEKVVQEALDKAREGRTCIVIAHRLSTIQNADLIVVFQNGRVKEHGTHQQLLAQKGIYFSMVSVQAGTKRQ

## C[C@@H]1CC[C@H]2[C@@H](C)C(=O)O[C@@H]3O[C@@]4(C)CC[C@@H]1[C@]32OO4 [ART, Artemisinin, reference compound]
[1]; 5.68 mg/kg
  parasitemia%: 70.2912% and 67.0337% and 68.4147% and 69.5326% and 69.0526%
[1]; 11.368 mg/kg
  parasitemia%: 34.1852% and 49.4174% and 42.0754% and 41.1875% and 34.5379%
[1]; 22.736 mg/kg
  parasitemia%: 1.979% and 6.804% and 2.98% and 0.248% and 3.003%
Caco-2 cell monolayers; 30 min
  transhipment of ART, AP-BL: 3.69 nmol and 3.84 nmol and 3.71 nmol
  transhipment of ART, Transepithelial transport in BL-to-AP: 28.49 nmol and 28.67 nmol and 28.4 nmol
Caco-2 cell monolayers; 60 min
  transhipment of ART, AP-BL: 5.02 nmol and 5.27 nmol and 5.14 nmol
  transhipment of ART, Transepithelial transport in BL-to-AP: 55.39 nmol and 55.5 nmol and 55.82 nmol
Caco-2 cell monolayers; 90 min
  transhipment of ART, AP-BL: 7.24 nmol and 7.11 nmol and 7.33 nmol
  transhipment of ART, Transepithelial transport in BL-to-AP: 69.96 nmol and 69.87 nmol and 69.99 nmol
Caco-2 cell monolayers; 120 min
  transhipment of ART, AP-BL: 8.97 nmol and 9.16 nmol and 9.09 nmol
  transhipment of ART, Transepithelial transport in BL-to-AP: 90.64 nmol and 90.48 nmol and 90.67 nmol
Caco-2 cell monolayers; 150 min
  transhipment of ART, AP-BL: 10.67 nmol and 10.60 nmol and 10.62 nmol
  transhipment of ART, Transepithelial transport in BL-to-AP: 106.51 nmol and 106.61 nmol and 106.74 nmol
Caco-2 cell monolayers; 180 min
  transhipment of ART, AP-BL: 11.97 nmol (2×) and 11.99 nmol
  transhipment of ART, Transepithelial transport in BL-to-AP: 124.37 nmol and 124.58 nmol and 124.56 nmol
Caco-2 cell monolayers; [3]
  ART original concentration, single replicate: 786.91 ng/mL and 1910.44 ng/mL and 2313.90 ng/mL
  ART original concentration, column mean: 2112.17 ng/mL
  ART concentration per group, summary block: 2112.17 ng/mL
Caco-2 cell monolayers; [4]
  ART original concentration, single replicate: 2149.07 ng/mL and 2049.02 ng/mL and 3232.78 ng/mL
  ART original concentration, column mean: 2640.90 ng/mL
  ART concentration per group, summary block: 2476.96 ng/mL
Caco-2 cell monolayers; [5]
  ART original concentration, single replicate: 2915.94 ng/mL and 2813.25 ng/mL and 3472.39 ng/mL
  ART original concentration, column mean: 3142.82 ng/mL
  ART concentration per group, summary block: 3067.20 ng/mL
Caco-2 cell monolayers; [6]
  ART original concentration, single replicate: 3594.17 ng/mL and 3318.58 ng/mL and 3006.12 ng/mL
  ART original concentration, column mean: 3162.35 ng/mL
  ART concentration per group, summary block: 3306.29 ng/mL
Caco-2 cell monolayers; [7]
  ART original concentration, single replicate: 3213.69 ng/mL and 2917.70 ng/mL and 3363.12 ng/mL
  ART original concentration, column mean: 3140.41 ng/mL
  ART concentration per group, summary block: 3164.84 ng/mL
Caco-2 cell monolayers; [8]
  ART original concentration, single replicate: 2674.58 ng/mL and 2920.77 ng/mL and 2532.18 ng/mL
  ART original concentration, column mean: 2726.47 ng/mL
  ART concentration per group, summary block: 2709.18 ng/mL
Caco-2 cell monolayers; [9]
  ART original concentration, single replicate: 5260.58 ng/mL and 5169.96 ng/mL and 5652.08 ng/mL
  ART concentration per group, summary block: 5360.87 ng/mL
Caco-2 cell monolayers; [10]
  ART original concentration, single replicate: 8719.34 ng/mL and 7267.89 ng/mL and 12129.77 ng/mL
  ART original concentration, column mean: 9698.83 ng/mL
  ART concentration per group, summary block: 9372.33 ng/mL
Caco-2 cell monolayers; [11]
  ART original concentration, single replicate: 9503.98 ng/mL and 6910.68 ng/mL and 13549.62 ng/mL
  ART original concentration, column mean: 10230.15 ng/mL
  ART concentration per group, summary block: 9988.09 ng/mL
Caco-2 cell monolayers; [12]
  ART original concentration, single replicate: 10562.24 ng/mL and 7482.04 ng/mL and 15676.89 ng/mL
  ART original concentration, column mean: 11579.46 ng/mL
  ART concentration per group, summary block: 11240.39 ng/mL
Caco-2 cell monolayers; [13]
  ART original concentration, single replicate: 9970.47 ng/mL and 7130.75 ng/mL and 15441.45 ng/mL
  ART original concentration, column mean: 11286.10 ng/mL
  ART concentration per group, summary block: 10847.56 ng/mL
Caco-2 cell monolayers; [14]
  ART original concentration, single replicate: 7047.15 ng/mL and 14960.70 ng/mL and 8594.06 ng/mL
  ART original concentration, column mean: 11777.38 ng/mL
  ART concentration per group, summary block: 10200.64 ng/mL
[2]; Caco-2, 10 μM ART alone (PU)
  Papp A→B at 180 min, 10 μM: 7.49 ± 0.35 ×10⁻⁶ cm/s
  Papp B→A at 180 min, 10 μM: 82.3 ± 2.1 ×10⁻⁶ cm/s
[2]; [15]
  Papp A→B at 180 min, 10 μM: 8.42 ± 0.37 ×10⁻⁶ cm/s
  Papp B→A at 180 min, 10 μM: 52.7 ± 2.3 ×10⁻⁶ cm/s

## C[C@@H]1CC[C@H]2[C@@H](C)C(=O)O[C@@H]3O[C@@]4(C)CC[C@@H]1[C@]32O4 [DEART, Deoxyartemisinin]
P-glycoprotein (P-gp)
  reduction of R123 transport from the BL side to the AP side: 22.40%
